This note sets out measurements from patent US11548899B2, “Fused 1,4-oxazepines and related analogs as BET bromodomain inhibitors” (THE REGENTS OF THE UNIVERSITY OF MICHIGAN, priority 2016, dated 2023).

One test deals with T1, recombinant BRD4 BD1 (Homo sapiens, UniProt O60885).
T1 construct: recombinant BRD4 BD1 and BRD4 BD2 proteins
Description: Competitive fluorescence-polarization (FP) binding assay, BRD4 BD1. Particulars: FP competitive binding; protein 10 nM, probe 1.5 nM; read-out: IC50 (nM) BRD4 BD1.

The target in a further test is T2, recombinant BRD4 BD2 (Homo sapiens, UniProt O60885).
T2 construct: recombinant BRD4 BD1 and BRD4 BD2 proteins
Put plainly: Competitive fluorescence-polarization (FP) binding assay, BRD4 BD2. Particulars: protein 6 nM, probe 1.5 nM.

Each structure is given as a SMILES string. “And” between values parts separate entries of the source, which are not always exact repeats. Equal values may be shown once.

Broadly, the IC50 is the concentration at which inhibition is half-maximal.

Description for recombinant BRD4 BD2: Fluorescence Polarization (FP) competitive binding studies were carried out using a FAM labeled fluorescent probe, see Cpd. […] Equilibrium dissociation constants (Kd) values of the fluorescent probe to BRD4 BD1 and BD2 proteins were determined from protein saturation experiments by monitoring the total fluorescence polarization of mixtures composed with the fluorescent probe at a fixed concentration and proteins with increasing concentrations up to full saturation. Serial dilutions of testing proteins were mixed with the fluorescent probe to a final volume of 200 μl in the assay buffer (100 mM phosphate buffer, pH=6.5, 0.01% Triton X-100 (Sigma, 282103) being added right before assays). Final fluorescent probe concentration was 1.5 nM for both proteins. Plates were incubated at room temperature for 30 minutes with gentle shaking to assure equilibrium. FP values in millipolarization units (mP) were measured using the Infinite M-1000 plate reader (Tecan U.S., Research Triangle Park, N.C.) in Microfluor 1 96-well, black, round-bottom plates (Thermo Scientific, Waltham, Mass.) at an excitation wavelength of 485 nm and an emission wavelength of 530 nm.
The IC50 and Ki values of compounds were determined in a competitive binding experiment. […] Mixtures of 10 μl of the tested compounds in assay buffer with 40% Ethylene Glycol and 190 μl of preincubated protein/probe complex solution in the assay buffer (100 mM potassium phosphate, pH 6.5, 0.01% Triton X-100) were added into assay plates which were incubated at room temperature for 30 minutes with gentle shaking. Final concentrations of proteins were 10 and 6 nM in assays for BRD4 BD1 and BD2, respectively. Final probe concentration is 1.5 nM in both assays. […] FP values were measured as described above. IC50 values were determined by nonlinear regression fitting of the competition curves.

With `Cc1sc2c(c1Cc1ccccc1)CN[C@@H](C)c1nnc(C)n1-2` [Cpd. No. 13, (S)-3-benzyl-2,6,9-trimethyl-5,6-dihydro-4H-thieno[3,2-f][1,2,4]triazolo[4,3-a][1,4]diazepine], the IC50 is 1070 nM and 1200 nM on recombinant BRD4 BD1; 1210 nM and 1350 nM at recombinant BRD4 BD2.

Consider `Cc1sc2c(c1Cc1ccccc1)CN[C@H](C)c1nnc(C)n1-2` [Cpd. No. 17, (R)-3-benzyl-2,6,9-trimethyl-5,6-dihydro-4H-thieno[3,2-f][1,2,4]triazolo[4,3-a][1,4]diazepine], for which the IC50 was 1080 nM at recombinant BRD4 BD1 and 622 nM at recombinant BRD4 BD2.

As to `CCC(=O)N1Cc2c(sc(C)c2Cc2ccccc2)-n2c(C)nnc2[C@@H]1C` [Cpd. No. 19, (S)-1-(3-benzyl-2,6,9-trimethyl-4H-thieno[3,2-f][1,2,4]triazolo[4,3-a][1,4]diazepin-5(6H)-yl)propan-1-one], the figures for the half-inhibitory concentration (IC50) on recombinant BRD4 BD1 and on recombinant BRD4 BD2 were 2430 nM and 3210 nM, respectively.

Turning to `COC(=O)C[C@H]1c2nnc(C)n2-c2sc(C)c(Cc3ccccc3)c2CN1C(=O)OCc1ccccc1` [Cpd. No. 21, benzyl (S)-3-benzyl-6-(2-methoxy-2-oxoethyl)-2,9-dimethyl-4H-thieno[3,2-f][1,2,4]triazolo[4,3-a][1,4]diazepine-5(6H)-carboxylate], the IC50 on recombinant BRD4 BD1 was determined as 23800 nM; on recombinant BRD4 BD2, 17700 nM.

Consider `CCNC(=O)N1Cc2c(sc(C)c2Cc2ccccc2)-n2c(C)nnc2[C@@H]1C` [Cpd. No. 22, (S)-3-benzyl-N-ethyl-2,6,9-trimethyl-4H-thieno[3,2-f][1,2,4]triazolo[4,3-a][1,4]diazepine-5(6H)-carboxamide], for which the IC50 is 6060 nM on recombinant BRD4 BD1 and 5920 nM at recombinant BRD4 BD2.

As for `COC(=O)C[C@@H]1NCc2c(sc(C)c2Cc2ccccc2)-n2c(C)nnc21` [Cpd. No. 23, methyl(S)-2-(3-benzyl-2,9-dimethyl-5,6-dihydro-4H-thieno[3,2-f][1,2,4]triazolo[4,3-a][1,4]diazepin-6-yl)acetate], the results for the IC50 on recombinant BRD4 BD1 and at recombinant BRD4 BD2 were 2500 nM and 9010 nM, respectively.

For the compound `CCOC(=O)CN1Cc2c(sc(C)c2Cc2ccccc2)-n2c(C)nnc2[C@@H]1C` [Cpd. No. 25, ethyl (S)-2-(3-benzyl-2,6,9-trimethyl-4H-thieno[3,2-f][1,2,4]triazolo[4,3-a][1,4]diazepin-5(6H)-yl)acetate], the IC50 stood at 942 nM on recombinant BRD4 BD1 and 1100 nM on recombinant BRD4 BD2.

Turning to `Cc1sc2c(c1Cc1ccccc1)CN(S(=O)(=O)CCc1ccccc1)[C@@H](C)c1nnc(C)n1-2` [Cpd. No. 26, (S)-3-benzyl-2,6,9-trimethyl-5-(phenethylsulfonyl)-5,6-dihydro-4H-thieno[3,2-f][1,2,4]triazolo[4,3-a][1,4]diazepine], the IC50 on recombinant BRD4 BD1 was 9600 nM; on recombinant BRD4 BD2 it was 4460 nM.

As for `Cc1sc2c(c1Cc1ccccc1)CN(C1CCC1)[C@@H](C)c1nnc(C)n1-2` [Cpd. No. 29, (S)-3-benzyl-5-cyclobutyl-2,6,9-trimethyl-5,6-dihydro-4H-thieno[3,2-f][1,2,4]triazolo[4,3-a][1,4]diazepine], the IC50 at recombinant BRD4 BD1 turned out to be 1470 nM; at recombinant BRD4 BD2, 5860 nM.

In the case of `Cc1nnc2n1-c1cccc(Br)c1COC2` [Cpd. No. 36, 7-bromo-1-methyl-4,6-dihydrobenzo[e][1,2,4]triazolo[3,4-c][1,4]oxazepine], the IC50 on recombinant BRD4 BD1 and at recombinant BRD4 BD2 was greater than 10000 nM in each case.

Consider `Cc1nnc2n1-c1cccc(Nc3ccccc3)c1COC2` [Cpd. No. 37, 1-methyl-N-phenyl-4,6-dihydrobenzo[e][1,2,4]triazolo[3,4-c][1,4]oxazepin-7-amine], for which the IC50 amounted to 14500 nM at recombinant BRD4 BD1 and 1460 nM on recombinant BRD4 BD2.

On to `Cc1nnc2n1-c1cccc(Cc3ccccc3)c1COC2` [Cpd. No. 38, 7-benzyl-1-methyl-4,6-dihydrobenzo[e][1,2,4]triazolo[3,4-c][1,4]oxazepine], for which the IC50 at recombinant BRD4 BD1 is 1420 nM and 1260 nM; on recombinant BRD4 BD2 it was 367 nM.

As for `Cc1nnc2n1-c1cccc(Sc3ccccc3)c1COC2` [Cpd. No. 39, 1-methyl-7-(phenylthio)-4,6-dihydrobenzo[e][1,2,4]triazolo[3,4-c][1,4]oxazepine], the IC50 stood at 5450 nM at recombinant BRD4 BD1 and 1060 nM on recombinant BRD4 BD2.

`Cc1nnc2n1-c1cccc([S+]([O-])c3ccccc3)c1COC2` (stereo not drawn) [Cpd. No. 41, 1-methyl-7-(phenylsulfinyl)-4,6-dihydrobenzo[e][1,2,4]triazolo[3,4-c][1,4]oxazepine]: the IC50 on recombinant BRD4 BD1 amounted to 18000 nM; on recombinant BRD4 BD2, 16600 nM.

With `Cc1nnc2n1-c1cccc(S(=O)(=O)c3ccccc3)c1COC2` [Cpd. No. 42, 1-methyl-7-(phenylsulfonyl)-4,6-dihydrobenzo[e][1,2,4]triazolo[3,4-c][1,4]oxazepine], the values for the IC50 at recombinant BRD4 BD1 and on recombinant BRD4 BD2 were 10300 nM and 5020 nM, respectively.

For `C=C(c1ccccc1)c1cccc2c1COCc1nnc(C)n1-2` [Cpd. No. 43, 1-methyl-7-(1-phenylvinyl)-4,6-dihydrobenzo[e][1,2,4]triazolo[3,4-c][1,4]oxazepine], the IC50 on recombinant BRD4 BD1 is 3530 nM; at recombinant BRD4 BD2, 328 nM.

For `Cc1nnc2n1-c1cccc(C3=CCc4ccccc43)c1COC2` [Cpd. No. 44, 7-(1H-inden-3-yl)-1-methyl-4,6-dihydrobenzo[e][1,2,4]triazolo[3,4-c][1,4]oxazepine], the values for the IC50 at recombinant BRD4 BD1 and on recombinant BRD4 BD2 were 4400 nM and 238 nM, respectively.

Take `Cc1nnc2n1-c1cccc(Cc3ccc(OC(F)(F)F)cc3)c1COC2` [Cpd. No. 45, 1-methyl-7-(4-(trifluoromethoxy)benzyl)-4,6-dihydrobenzo[e][1,2,4]triazolo[3,4-c][1,4]oxazepine]: the IC50 at recombinant BRD4 BD1 came out at 1550 nM; at recombinant BRD4 BD2, 1370 nM.

Take `Cc1nnc2n1-c1cccc(C3CCc4ccccc43)c1COC2` (stereo not drawn) [Cpd. No. 47, 7-(2,3-dihydro-1H-inden-1-yl)-1-methyl-4,6-dihydrobenzo[e][1,2,4]triazolo[3,4-c][1,4]oxazepine]: the figures for the IC50 at recombinant BRD4 BD1 and on recombinant BRD4 BD2 were 1200 nM and 303 nM, respectively.

Take `Cc1sc2c(c1C1=CCCc3ccccc31)COCc1nnc(C)n1-2` [Cpd. No. 51, 3-(3,4-dihydronaphthalen-1-yl)-2,9-dimethyl-4,6-dihydrothieno[2,3-e][1,2,4]triazolo[3,4-c][1,4]oxazepine]: the IC50 on recombinant BRD4 BD1 is 256 nM; at recombinant BRD4 BD2, 207 nM.

For `Cc1nnc2n1-c1cccc(C(=O)c3ccccc3)c1COC2` [Cpd. No. 52, (1-methyl-4,6-dihydrobenzo[e][1,2,4]triazolo[3,4-c][1,4]oxazepin-7-yl)(phenyl)methanone], the IC50 on recombinant BRD4 BD1 and on recombinant BRD4 BD2 was greater than 10000 nM throughout.

Regarding `Cc1sc2c(c1C1CCCc3ccccc31)COCc1nnc(C)n1-2` (stereo not drawn) [Cpd. No. 54, 2,9-dimethyl-3-(1,2,3,4-tetrahydronaphthalen-1-yl)-4,6-dihydrothieno[2,3-e][1,2,4]triazolo[3,4-c][1,4]oxazepine], the IC50 stood at 210 nM on recombinant BRD4 BD1 and 127 nM on recombinant BRD4 BD2.

As to `Cc1sc2c(c1Cc1cc(F)cc(F)c1)COCc1nnc(C)n1-2` [Cpd. No. 104, 3-(3,5-difluorobenzyl)-2,9-dimethyl-4H,6H-thieno[2,3-e][1,2,4]triazolo[3,4-c][1,4]oxazepine], the IC50 at recombinant BRD4 BD1 worked out at 313 nM.

On to `Cc1sc2c(c1Cc1ccc(F)c(F)c1)COCc1nnc(C)n1-2` [Cpd. No. 105, 3-(3,4-difluorobenzyl)-2,9-dimethyl-4H,6H-thieno[2,3-e][1,2,4]triazolo[3,4-c][1,4]oxazepine], for which, at recombinant BRD4 BD1, the IC50 came out at 279 nM.

With `Cc1sc2c(c1Cn1cccc1)COCc1nnc(C)n1-2` [Cpd. No. 107, 3-((1H-pyrrol-1-yl)methyl)-2,9-dimethyl-4H,6H-thieno[2,3-e][1,2,4]triazolo[3,4-c][1,4]oxazepine], the IC50 at recombinant BRD4 BD1 came to 494 nM.

Regarding `Cc1sc2c(c1COC(C)(C)C)COCc1nnc(C)n1-2` [Cpd. No. 108, 3-(tert-butoxymethyl)-2,9-dimethyl-4H,6H-thieno[2,3-e][1,2,4]triazolo[3,4-c][1,4]oxazepine], the IC50 on recombinant BRD4 BD1 amounted to 5000 nM.

In the case of `Cc1sc2c(c1Cn1cccn1)COCc1nnc(C)n1-2` [Cpd. No. 112, 3-((1H-pyrazol-1-yl)methyl)-2,9-dimethyl-4H,6H-thieno[2,3-e][1,2,4]triazolo[3,4-c][1,4]oxazepine], the IC50 at recombinant BRD4 BD1 was 1370 nM and 2610 nM and 1760 nM; on recombinant BRD4 BD2, 3230 nM and 3850 nM and 3950 nM.

In the case of `Cc1sc2c(c1Cc1ccccc1)CO[C@H](C)c1nnc(C)n1-2` [Cpd. No. 114, (R)-3-benzyl-2,6,9-trimethyl-4H,6H-thieno[2,3-e][,2,4]triazolo[3,4-c][1,4]oxazepine], the values for the IC50 on recombinant BRD4 BD1 and at recombinant BRD4 BD2 were 249 nM and 297 nM, respectively.

As for `Cc1sc2c(c1Cc1ccccc1)COC(CC(=O)OC(C)(C)C)c1nnc(C)n1-2` (stereo not drawn) [Cpd. No. 115, tert-butyl 2-(3-benzyl-2,9-dimethyl-4H,6H-thieno[2,3-e][1,2,4]triazolo[3,4-c][1,4]oxazepin-6-yl)acetate], the IC50 turned out to be 170 nM at recombinant BRD4 BD1 and 338 nM on recombinant BRD4 BD2.

With `Cc1nnc2n1-c1scc(Br)c1CO[C@H]2C` [Cpd. No. 117, (S)-3-bromo-6,9-dimethyl-4,6-dihydrothieno[2,3-e][1,2,4]triazolo[3,4-c][1,4]oxazepine], at recombinant BRD4 BD1, the IC50 amounted to 118 nM.

As to `Cc1sc2c(c1Br)CN(C(=O)OCc1ccccc1)[C@@H](C)c1nnc(C)n1-2` [Cpd. No. 147, benzyl (S)-3-bromo-2,6,9-trimethyl-4H-thieno[3,2-f][1,2,4]triazolo[4,3-a][1,4]diazepine-5(6H)-carboxylate], the half-inhibitory concentration (IC50) on recombinant BRD4 BD1 turned out to be 48600 nM; on recombinant BRD4 BD2, 83700 nM.
